The values below come from patent publication US7091340B2, “Polymorphs” (Boehringer Ingelheim Pharmaceuticals, Inc., priority 2003, dated 2006).

Series [1] can be described thus: Solubility vs. temperature profile experiments. The format is physicochemical. The note with it: within the temperature range of the experiment.
Series [2] is described as follows: Microscopical solution phase transformation experiments. The format is physicochemical. Conditions: room temperature; Forms IV and VI compared.

Consider `Cc1ccc(-n2nc(C(C)(C)C)cc2NC(=O)Nc2ccc(OCCN3CCOCC3)c3ccccc23)cc1` [Form VI, 1-(5-tert-butyl-2-p-tolyl-2H-pyrazol-3-yl)-3-[4-(2-morpholin-4-yl-ethoxy)-naphthalen-1-yl]-urea], for which the “thermodynamic relationship of the two forms” value in series [1] is “monotropically related”. The “thermodynamic stability relative to Form IV” value in series [1] (Forms IV and VI compared) is given as “more thermodynamically stable relative to Form IV”; in series [2], “more thermodynamically stable at room temperature relative to Form IV”.
